Data from patent US20250179033A1 (priority 2021, published 2025).
Read-outs that look alike come from different tables or passages of the source.

How the values were obtained:
HIV-1 IIIB (wild-type) = experiment: HIV inhibition assay in TZM-bl cells, wild-type; format: cell-based; conditions: Human immunodeficiency virus 1, IIIB, read-out: IC50 (TZM, WT)
Protocol: (§1) Cells and virus culture: TZM-bl cells (42), HIV-1 IIIB virus (43-45) and HIV-1 IIIB (A17 variant) virus (46) as well are the NNRTI resistant mutants (strain NL4-3) (47) were obtained from the NIH HIV Reagent Program. H9 [derivative of HuT 78]cells (ATCC® HTB176™) were obtained from the American Type Culture Collection (Manassas, Virginia, United States of America). These viruses were grown in H9 cells to high titer, which was tested using a HIV p24 (high sensitivity) The detection kit used was sold under the tradename ALPHALISA® Detection Kit (PerkinElmer, Waltham, Massachusetts, United States of America). The viruses were concentrated using Lenti-X Concentrator (Takara Bio USA, Inc., Mountain View, California, United States of America). Infections of TZM-bl cells with either virus was facilitated with 15 μg/mL DEAE-dextran.
(§2) Compounds were serially diluted starting with 10 mM stocks in DMSO. DMSO concentrations were kept the same for all dilutions used within an assay (either 0.005% or 0.05% depending on highest concentration used). Duplicate 96-well plates were set up with 25 μL compound dilution, 25 μL virus, and 50 μL TZM-bl cells (2×10^5/mL) with DEAE-dextran and incubated at 37° C. 5% CO2 for 48 hr. All compounds were tested in triplicate, with single wells of efavirenz dilutions on each plate. All plates had 3-5 control wells without compound, 1 control well with no cells, and 1 control well with a highly toxic level of DMSO (9%). Inhibition assays were set up in clear tissue-culture treated plates with lysates moved to black assay plates or were set up in black tissue culture-treated plates. Medium was removed and the cells were lysed with Glo Lysis Buffer (Promega, Madison, Wisconsin, United States of America). Luciferase Assay System reagent (Promega, Madison, Wisconsin, United States of America) was added to cells and relative light units (RLU) was measured using an EnSpire instrument (PerkinElmer, Waltham, Massachusetts, United States of America). Toxicity assays were set up in clear tissue culture-treated plates. CellTiter-Blue Cell Viability Assay reagent (Promega) was added to the wells after 46 hr incubation, followed by 2 hr incubation. Sodium lauryl sulfate was added to 1.5% to stop the reaction and the plates were measured for fluorescence (560 nmEx/590 nmEm) using an EnSpire instrument (PerkinElmer, Waltham, Massachusetts, United States of America).

[1] = system: HIV-1 IIIB A17 variant (Y181C/K103N); experiment: HIV inhibition assay in TZM-bl cells, A17 variant; format: cell-based; conditions: Human immunodeficiency virus 1, IIIB, TZM-bl
Protocol: as §1, §2

[2] = Toxicity assay in TZM-bl cells; format: cell-based; conditions: human
Protocol: as §2

TZM-bl cells = experiment: Toxicity assay in TZM-bl cells; format: cell-based
Protocol: as §2

[3] = biological target: T1, HIV I reverse transcriptase (Human immunodeficiency virus type 1 group M subtype B, UniProt P03366); experiment: Reverse transcriptase inhibition assay (Roche kit, ELISA); format: biochemical
T1 construct: purchased Roche
Protocol: NNRTI assay methods: Inhibition of HIV I reverse transcriptase was assessed via a kit from Roche (Indianapolis-Marion County, Indiana, United States of America) using the manufacture's protocol (500 μM final reverse transcriptase reaction amount). […] DMSO concentrations were kept the same for all dilutions used within an assay (0.05%). Final compound concentrations ranged from 5000 nM-0.05 nM with 2-fold serial dilutions. 96-well plates were set up with 20 μL compound dilution, 20 μL reverse transcriptase, and 20 μL template/nucleotides and incubated at 37° C. 5% CO2 for 1 hr in a reaction plate. 50 μL of each reaction was then transferred to a streptavidin conjugated 96-well plate and an ELISA assay was run based on manufacture's protocol. All compounds were tested in sextuplicate, with single wells of efavirenz dilutions on each plate.

[4] = Table 3, TZM-bl, ± SEM, minimum 6 replicates
[5] = read-out: IC50 (TZM, A17), Table 3, TZM-bl, ± SEM, minimum 6 replicates
[6] = read-out: IC50 (TZM, A17), Table 4, TZM-bl

| SMILES | IC50 (HIV-1 IIIB (wild-type); [4]) [nM] | IC50 (HIV-1 IIIB (wild-type); Table 4, TZM-bl) [nM] | IC50 [1, 5] [nM] | IC50 [1, 6] [nM] | CC50 at 48 h [2] [nM] | Qualitative Cell Toxicity within inhibition range (TZM-bl cells) | Quantitative Cell Toxicity (TZM-bl cells; human, 48 h) [nM] | EC50 [3] [nM] | CC50 at 48 h ([2]; Table 4, TZM-bl, read-out: CC50 (TZM)) [nM] | Qualitative Cell Toxicity within inhibition range (TZM-bl cells; Table 3, TZM-bl) | Quantitative Cell Toxicity (TZM-bl cells; Table 3, TZM-bl) [nM] |
| --- | --- | --- | --- | --- | --- | --- | --- | --- | --- | --- | --- |
| N#Cc1ccc(Nc2nc(N)n(S(=O)(=O)c3cccc4cc(C#N)ccc34)n2)cc1 [Compound 2, 5-[[5-amino-3-(4-cyanoanilino)-1,2,4-triazol-1-yl]sulfonyl]naphthalene-2-carbonitrile] | 1.11 ± 0.198 | 0.316 | 55 ± 4.01 | 24.4 | 7550 | None | 578 | 578 | – | – | – |
| N#Cc1ccc2c(S(=O)(=O)n3nc(Nc4ccc(C#N)c(Cl)c4)nc3N)cccc2c1 [Compound 5, 5-[[5-amino-3-(3-chloro-4-cyano-anilino)-1,2,4-triazol-1-yl]sulfonyl]naphthalene-2-carbonitrile] | 0.42 ± 0.0777 | 0.428 | 39.6 ± 18.2 | 15.7 | – | – | – | 1710 | 6010 | None | 1710 |
| N#Cc1ccc2c(S(=O)(=O)n3nc(Nc4ccc(C#N)c(C#N)c4)nc3N)cccc2c1 [Compound 14, 4-[[5-amino-1-[(6-cyano-1-naphthyl)sulfonyl]-1,2,4-triazol-3-yl]amino]phthalonitrile] | 0.684 ± 0.077 | 0.318 | 37.2 ± 15.4 | 31.7 | 31800 | None | 1350 | 1350 | – | – | – |
| N#C/C=C/c1ccc2c(S(=O)(=O)n3nc(Nc4ccc(CC#N)cc4)nc3N)cccc2c1 [Compound 21, 3-[5-[[5-amino-3-[4-(cyanomethyl)anilino]-1,2,4-triazol-1-yl]sulfonyl]-2-naphthyl]prop-2-enenitrile] | 0.255 ± 0.035 | 0.228 | 5.42 ± 1.39 | 13.8 | 747 | None | 747 | 10900 | – | – | – |
| Nc1nc(Nc2ccc(Cl)cc2)nn1S(=O)(=O)c1cccc2nonc12 [Compound 37, 1-(2,1,3-benzoxadiazol-4-ylsulfonyl)-N3-(4-chlorophenyl)-1,2,4-triazole-3,5-diamine] | 10.2 ± 1.46 | – | > 1000 | – | – | None | – | – | – | – | – |
| COc1ccc(Cl)cc1S(=O)(=O)n1nc(Nc2ccc(Cl)cc2)nc1N [Compound 38, 1-(5-chloro-2-methoxy-phenyl)sulfonyl-N3-(4-chlorophenyl)-1,2,4-triazole-3,5-diamine] | 177 ± 73.1 | – | > 1000 | – | – | None | – | – | – | – | – |
| Nc1nc(Nc2ccc(Cl)cc2)nn1S(=O)(=O)c1ccc(F)c(F)c1F [Compound 39, N3-(4-chlorophenyl)-1-(2,3,4-trifluorophenyl)sulfonyl-1,2,4-triazole-3,5-diamine] | 575 ± 104 | – | > 1000 | – | – | None | – | – | – | – | – |
| Nc1nc(Nc2ccc(Cl)cc2)nn1S(=O)(=O)c1ccc(Br)s1 [Compound 40, 1-[(5-bromo-2-thienyl)sulfonyl]-N3-(4-chlorophenyl)-1,2,4-triazole-3,5-diamine] | 15.1 ± 3.12 | – | > 1000 | – | – | None | – | – | – | – | – |
| Nc1nc(Nc2ccc(Cl)cc2)nn1S(=O)(=O)c1cc(Cl)sc1Cl [Compound 41, N3-(4-chlorophenyl)-1-[(2,5-dichloro-3-thienyl)sulfonyl]-1,2,4-triazole-3,5-diamine] | 10.1 ± 1.69 | – | 3680 ± 10900 | – | – | None | – | – | – | – | – |
| N#Cc1ccc2c(S(=O)(=O)n3nc(Nc4c(Cl)cc(Cl)cc4Cl)nc3N)cccc2c1 [Compound 42, 5-[[5-amino-3-(2,4,6-trichloroanilino)-1,2,4-triazol-1-yl]sulfonyl]naphthalene-2-carbonitrile] | 28.1 ± 6.75 | – | > 1000 | – | – | None | – | – | – | – | – |
| N#Cc1cccc(S(=O)(=O)n2nc(Nc3c(Cl)cc(Cl)cc3Cl)nc2N)c1 [Compound 43, 3-[[5-amino-3-(2,4,6-trichloroanilino)-1,2,4-triazol-1-yl]sulfonyl]benzonitrile] | 33.7 ± 9.93 | – | > 1000 | – | – | None | – | – | – | – | – |
| CC(=O)Nc1nc(C)c(S(=O)(=O)n2nc(Nc3cc(Cl)c(Cl)cc3Cl)nc2N)s1 [Compound 44, N-[5-[[5-amino-3-(2,4,5-trichloroanilino)-1,2,4-triazol-1-yl]sulfonyl]-4-methyl-thiazol-2-yl]acetamide] | 165 ± 121 | – | > 1000 | – | – | None | – | – | – | – | – |
| N#Cc1ccc(Nc2nc(N)n(S(=O)(=O)c3ccc(C(F)(F)F)nc3)n2)c(Cl)c1 [Compound 45, 4-[[5-amino-1-[[6-(trifluoromethyl)-3-pyridyl]sulfonyl]-1,2,4-triazol-3-yl]amino]-3-chloro-benzonitrile] | 36.1 ± 8.67 | – | > 1000 | – | – | None | – | – | – | – | – |
| N#Cc1ccc(Nc2nc(N)n(S(=O)(=O)c3cccc4nc(Cl)ccc34)n2)c(Cl)c1 [Compound 46, 4-[[5-amino-1-[(2-chloro-5-quinolyl)sulfonyl]-1,2,4-triazol-3-yl]amino]-3-chloro-benzonitrile] | 394 ± 264 | – | > 1000 | – | – | None | – | – | – | – | – |
| Cc1c(S(=O)(=O)n2nc(Nc3ccc(C#N)cc3)nc2N)sc2ccc(Cl)cc12 [Compound 48, 4-[[5-amino-1-(5-chloro-3-methyl-benzothiophen-2-yl)sulfonyl-1,2,4-triazol-3-yl]amino]benzonitrile] | 14 ± 2.44 | – | > 1000 | – | – | None | – | – | – | – | – |
| N#CCc1ccc(Nc2nc(N)n(S(=O)(=O)c3cnc(Cl)nc3)n2)cc1 [Compound 49, 2-[4-[[5-amino-1-(2-chloropyrimidin-5-yl)sulfonyl-1,2,4-triazol-3-yl]amino]phenyl]-acetonitrile] | 108 ± 31.8 | – | > 1000 | – | – | None | – | – | – | – | – |
| CC(=O)Nc1nc(C)c(S(=O)(=O)n2nc(Nc3ccc(CC#N)cc3)nc2N)s1 [Compound 50, N-[5-[[5-amino-3-[4-(cyanomethyl)anilino]-1,2,4-triazol-1-yl]sulfonyl]-4-methyl-thiazol-2-yl]acetamide] | 19.4 ± 3.8 | – | > 1000 | – | – | None | – | – | – | – | – |
| N#Cc1ccc(Nc2nc(N)n(S(=O)(=O)c3c(Cl)nc4sccn34)n2)cc1C#N [Compound 51, 4-[[5-amino-1-(6-chloroimidazo[2,1-b]thiazol-5-yl)sulfonyl-1,2,4-triazol-3-yl]amino]-phthalonitrile] | 0.223 ± 0.055 | – | > 1000 | – | – | None | – | – | – | – | – |
| Cc1nc(-c2ccc(S(=O)(=O)n3nc(Nc4ccc(C#N)cc4)nc3N)s2)cs1 [Compound 52] | 2.14 ± 0.812 | – | > 1000 | – | – | None | – | – | – | – | – |
